Data published in ChEMBL document CHEMBL1208682, “New quinoline derivatives: synthesis and investigation of antibacterial and antituberculosis properties” (2010).
In brackets after ≈: the same amount, converted by molar mass.

Each molecule was assayed on Mycobacterium tuberculosis (assay: Antituberculosis activity against multi drug-resistant Mycobacterium tuberculosis after 7 days using resazurin dye by broth microdilution assay). Details: 168 h.
Format: functional

Structure (SMILES)	MIC [µM]
CCCCCCC/C=N/Nc1cc(C(F)(F)F)nc2c(C(F)(F)F)cccc12	6.25 (≈ 2.53 µg/mL)
Cn1cc(Cl)c(/C=N/Nc2cc(C(F)(F)F)nc3c(C(F)(F)F)cccc23)n1	6.25 (≈ 2.64 µg/mL)
COCCNC(=S)NNc1cc(C(F)(F)F)nc2c(C(F)(F)F)cccc12	25 (≈ 10.3 µg/mL)
NNC(=O)c1ccncc1 [ISONIAZID]	12.5 (≈ 1.71 µg/mL)
COc1ccc2[nH]cc(/C=N/Nc3cc(C(F)(F)F)nc4c(C(F)(F)F)cccc34)c2c1	> 50
COc1ccccc1NC(=O)NNc1cc(C(F)(F)F)nc2c(C(F)(F)F)cccc12	12.5 (≈ 5.55 µg/mL)
FC(F)(F)c1cc(N/N=C/c2c[nH]cn2)c2cccc(C(F)(F)F)c2n1	6.25 (≈ 2.33 µg/mL)
O=C(NNc1cc(C(F)(F)F)nc2c(C(F)(F)F)cccc12)Nc1ccc(F)cc1	12.5 (≈ 5.4 µg/mL)
Oc1cc(F)ccc1/C=N/Nc1cc(C(F)(F)F)nc2c(C(F)(F)F)cccc12	> 50
COc1ccc(/C=N/Nc2cc(C(F)(F)F)nc3c(C(F)(F)F)cccc23)c(F)c1	6.25 (≈ 2.7 µg/mL)
FC(F)(F)Oc1cccc(/C=N/Nc2cc(C(F)(F)F)nc3c(C(F)(F)F)cccc23)c1	12.5 (≈ 5.84 µg/mL)
Cc1cc(C)cc(NC(=O)NNc2cc(C(F)(F)F)nc3c(C(F)(F)F)cccc23)c1	6.25 (≈ 2.76 µg/mL)
CCCCCNC(=O)NNc1cc(C(F)(F)F)nc2c(C(F)(F)F)cccc12	> 50
Fc1ccccc1NC(=S)NNc1cc(C(F)(F)F)nc2c(C(F)(F)F)cccc12	> 50
CO[C@H]1/C=C/O[C@@]2(C)Oc3c(C)c(O)c4c(O)c(c(/C=N/N5CCN(C)CC5)c(O)c4c3C2=O)NC(=O)/C(C)=C\C=C\[C@H](C)[C@H](O)[C@@H](C)[C@@H](O)[C@@H](C)[C@H](OC(C)=O)[C@@H]1C [RIFAMPIN]	25 (≈ 20.6 µg/mL)
COc1ccc(/C=N/Nc2cc(C(F)(F)F)nc3c(C(F)(F)F)cccc23)cc1O	12.5 (≈ 5.37 µg/mL)
Cn1cccc1/C=N/Nc1cc(C(F)(F)F)nc2c(C(F)(F)F)cccc12	25 (≈ 9.66 µg/mL)
FC(F)(F)c1cc(N/N=C/c2cccs2)c2cccc(C(F)(F)F)c2n1	> 50
Cc1nc[nH]c1/C=N/Nc1cc(C(F)(F)F)nc2c(C(F)(F)F)cccc12	6.25 (≈ 2.42 µg/mL)
FC(F)(F)c1cc(N/N=C/c2ccc3c(c2)CCO3)c2cccc(C(F)(F)F)c2n1	12.5 (≈ 5.32 µg/mL)
FC(F)C(F)(F)Oc1cccc(/C=N/Nc2cc(C(F)(F)F)nc3c(C(F)(F)F)cccc23)c1	25 (≈ 12.5 µg/mL)
Cc1cccc2c(/C=N/Nc3cc(C(F)(F)F)nc4c(C(F)(F)F)cccc34)c[nH]c12	12.5 (≈ 5.45 µg/mL)
FC(F)(F)c1cc(N/N=C/C2CCCCC2)c2cccc(C(F)(F)F)c2n1	6.25 (≈ 2.43 µg/mL)
N#Cc1cccc(NC(=O)NNc2cc(C(F)(F)F)nc3c(C(F)(F)F)cccc23)c1	> 50
CC(=O)OCc1ccc(/C=N/Nc2cc(C(F)(F)F)nc3c(C(F)(F)F)cccc23)o1	> 50
FC(F)(F)c1cc(N/N=C/c2cocc2Br)c2cccc(C(F)(F)F)c2n1	> 50
Cn1nnc2cc(/C=N/Nc3cc(C(F)(F)F)nc4c(C(F)(F)F)cccc34)ccc21	25 (≈ 11 µg/mL)
FC(F)(F)c1cc(N/N=C/c2cccnc2)c2cccc(C(F)(F)F)c2n1	> 50
FC(F)(F)c1cc(N/N=C/c2ccc3nonc3c2)c2cccc(C(F)(F)F)c2n1	12.5 (≈ 5.32 µg/mL)
